Test results published in US20230355646A1, “AUTOPHAGY ACTIVATOR” (Resonac Corporation, priority 2020, published 2023).

System: human neuroblastoma (SH-SY5Y)
Test: Apoptosis suppressing action caused by amyloid β in human neuroblastoma (Hoechst 33342 staining)
Type: cell-based
Method: The proportion of apoptotic cells in human neuroblastoma (SH-SY5Y; obtained from ATCC) in the presence of an autophagy activator was measured by the following test method to evaluate the apoptosis suppressing action of the autophagy activator.
In the following examples and comparative examples, tests were performed by adding amyloid β, which is known to induce cell death called apoptosis of nerve cells due to a decrease in autophagy, to each medium.
SH-SY5Y cells were prepared at a seeding density of 50000 cells/cm^2 and cultured for 24 hours in D-MEM medium/Ham's F-12 medium (manufactured by Sigma-Aldrich) to which 10% fetal bovine serum (manufactured by MP Biomedicals) was added. […]
Thereafter, an aqueous solution of 10 μM Hoechst 33342 (manufactured by Sigma-Aldrich) was added to each SH-SY5Y cell from which the medium was removed, and the cells were allowed to stand at room temperature (25° C.) for 10 minutes. After removing the solution, each SH-SY5Y cell was washed with phosphate buffer (PBS, manufactured by Wako Pure Chemical Industries, Ltd.), and with a fluorescence microscope, the number of cells showing strong apoptosis-like Hoechst fluorescence due to chromatin aggregation (Hoechst (+) cells) was counted. […]

Structure (SMILES): COc1ccc([C@@H]2CC(=O)c3c(O)cc(O[C@@H]4O[C@H](CO[C@@H]5O[C@@H](C)[C@H](O)[C@@H](O)[C@H]5O)[C@@H](O)[C@H](O)[C@H]4O)cc3O2)cc1O [Comparative Example 2, hesperidin]
- proportion of apoptotic cells (in words) (SH-SY5Y cells with amyloid β, compared to DMSO and amyloid β of Comparative Example 7): decreased
- Proportion of apoptotic cells (SH-SY5Y cells, 30 μM amyloid β present, 10^−2% (V/V) methyl hesperidin or hesperidin, additional ingredient where in the example, 48 hours, relative value, Reference Example 4 = 1.00): 3.76
